Reference: patent US9266876B2 (Actelion Pharmaceuticals Ltd., priority 2012, dated 2016)
pIC50: −log10 of the molar value.

Experiments:
human CXCR3A = human CXCR3A (Homo sapiens (Human), UniProt P49682); assay: FLIPR assay; assay type: cell-based; details: CHO-K1 cells expressing the human CXCR3A coupled to Galpha(16); CXCL10 agonist 20 nM; Fluo-4-AM fluorescence; mean values if determined several times
Outline: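 CHO-K1 cells expressing CXCR3A coupled to Gα16 were loaded with Fluo-4-AM for 1 h in Hepes-buffered HBSS, pH 7.4, with 5 mM probenecid. Compound dilutions were added on the FLIPR, followed by CXCL10 (added as a 20 nM solution). Baseline-subtracted peak fluorescence was fitted to a single-site curve for IC50.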

CXCR3 = CXCR3 (Homo sapiens (Human), UniProt P49682); assay: Receptor internalization assay; assay type: cell-based; details: human whole blood; final CXCL10 concentration 9 nM; 30 min 37° C.; CXCR3 cell surface expression on CD3 positive cells, flow cytometer; read-out: Internalization IC50
CXCR3, sequence (P49682 whole entry): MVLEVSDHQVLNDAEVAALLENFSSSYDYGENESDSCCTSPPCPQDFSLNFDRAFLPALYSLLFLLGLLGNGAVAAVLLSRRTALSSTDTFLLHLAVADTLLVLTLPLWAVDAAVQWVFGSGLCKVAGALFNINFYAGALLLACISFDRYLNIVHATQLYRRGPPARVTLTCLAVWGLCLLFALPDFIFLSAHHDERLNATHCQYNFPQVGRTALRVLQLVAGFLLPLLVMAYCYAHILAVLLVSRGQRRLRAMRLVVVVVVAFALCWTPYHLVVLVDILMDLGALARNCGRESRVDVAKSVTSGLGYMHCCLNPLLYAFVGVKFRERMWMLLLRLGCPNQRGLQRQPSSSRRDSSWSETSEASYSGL
Outline: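 In human whole blood, compounds were incubated with CXCL10 (9 nM final) for 30 min at 37 °C to drive receptor internalization, then stained with anti-CXCR3/CD3 antibodies and lysed of red cells. Flow cytometry measured mean surface CXCR3 fluorescence on CD3+ cells, and IC50 came from single-site dose-response fits.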

human CXCR3A, sequence (P49682 whole entry): as above

Row | Structure (SMILES) | pIC50 (human CXCR3A) | pIC50 (CXCR3)
1 | C[C@@H]1CN(c2sc(-c3ccccc3F)nc2-c2nc3ccccc3[nH]2)CCN1C(=O)Cn1cnc2cccnc21 [Example 148, 1-{(R)-4-[4-(1H-Benzoimidazol-2-yl)-2-(2-fluoro-phenyl)-thiazol-5-yl]-2-methyl-piperazin-1-yl}-2-imidazo[4,5-b]pyridin-3-yl-ethanone] | 7.62 | 5.35
2 | Cc1cccc(-c2nc(-c3nc4ccccc4[nH]3)c(N3CCN(C(=O)Cn4cnc5cccnc54)[C@H](C)C3)s2)c1 [Example 149, 1-{(R)-4-[4-(1H-Benzoimidazol-2-yl)-2-m-tolyl-thiazol-5-yl]-2-methyl-piperazin-1-yl}-2-imidazo[4,5-b]pyridin-3-yl-ethanone] | 7.80 | 5.29
3 | Cc1ccc(-c2nc(-c3nc4ccccc4[nH]3)c(N3CCN(C(=O)Cn4cnc5cccnc54)[C@H](C)C3)s2)cc1 [Example 150, 1-{(R)-4-[4-(1H-Benzoimidazol-2-yl)-2-p-tolyl-thiazol-5-yl]-2-methyl-piperazin-1-yl}-2-imidazo[4,5-b]pyridin-3-yl-ethanone] | 7.35 | 5.25
4 | C[C@@H]1CN(c2scnc2-c2nc3ccccc3[nH]2)CCN1C(=O)CN1C(=O)C(C)(C)c2ccccc21 [Example 151, 1-(2-{(R)-4-[4-(1H-Benzoimidazol-2-yl)-thiazol-5-yl]-2-methyl-piperazin-1-yl}-2-oxo-ethyl)-3,3-dimethyl-1,3-dihydro-indol-2-one] | 8.40 | 6.26
5 | Cc1cccc2oc(=O)n(CC(=O)N3CCN(c4scnc4-c4nc5ccccc5[nH]4)C[C@H]3C)c12 [Example 152, 3-(2-{(R)-4-[4-(1H-Benzoimidazol-2-yl)-thiazol-5-yl]-2-methyl-piperazin-1-yl}-2-oxo-ethyl)-4-methyl-3H-benzooxazol-2-one] | 8.52 | 6.18
6 | C[C@@H]1CN(c2scnc2-c2nc3ccccc3[nH]2)CCN1C(=O)Cn1c(=O)oc2cccc(F)c21 [Example 153, 3-(2-{(R)-4-[4-(1H-Benzoimidazol-2-yl)-thiazol-5-yl]-2-methyl-piperazin-1-yl}-2-oxo-ethyl)-4-fluoro-3H-benzooxazol-2-one] | 8.15 | 5.99
7 | C[C@@H]1CN(c2scnc2-c2nc3ccccc3[nH]2)CCN1C(=O)Cn1c(CO)cc2cccnc21 [Example 154, 1-{(R)-4-[4-(1H-Benzoimidazol-2-yl)-thiazol-5-yl]-2-methyl-piperazin-1-yl}-2-(2-hydroxymethyl-pyrrolo[2,3-b]pyridin-1-yl)-ethanone] | 7.85 | 5.52
8 | C[C@@H]1CN(c2scnc2-c2nc3ccccc3[nH]2)CCN1C(=O)Cn1c(=O)oc2cccnc21 [Example 155, 3-(2-{(R)-4-[4-(1H-Benzoimidazol-2-yl)-thiazol-5-yl]-2-methyl-piperazin-1-yl}-2-oxo-ethyl)-3H-oxazolo[4,5-b]pyridin-2-one] | 8.22 | 5.96
9 | COc1cc2nc(-c3ncsc3N3CCN(C(=O)Cn4cnc5cccnc54)[C@H](C)C3)[nH]c2cc1OC [Example 158, 1-{(R)-4-[4-(5,6-Dimethoxy-1H-benzoimidazol-2-yl)-thiazol-5-yl]-2-methyl-piperazin-1-yl}-2-imidazo[4,5-b]pyridin-3-yl-ethanone] | 8.30 | 5.46
10 | C[C@@H]1CN(c2sc(C(F)(F)F)nc2-c2nc3ccc(CO)cc3[nH]2)CCN1C(=O)Cn1cnc2cccnc21 [Example 160, 1-{(R)-4-[4-(6-Hydroxymethyl-1H-benzoimidazol-2-yl)-2-trifluoromethyl-thiazol-5-yl]-2-methyl-piperazin-1-yl}-2-imidazo[4,5-b]pyridin-3-yl-ethanone] | 8.70 | 7.04
11 | COc1cc2nc(-c3nc(C(F)(F)F)sc3N3CCN(C(=O)Cn4cnc5cccnc54)[C@H](C)C3)[nH]c2cc1OC [Example 161, 1-{(R)-4-[4-(5,6-Dimethoxy-1H-benzoimidazol-2-yl)-2-trifluoromethyl-thiazol-5-yl]-2-methyl-piperazin-1-yl}-2-imidazo[4,5-b]pyridin-3-yl-ethanone] | 8.70 | 6.84
12 | COCCOc1ccc2[nH]c(-c3nc(C(F)(F)F)sc3N3CCN(C(=O)Cn4cnc5cccnc54)[C@H](C)C3)nc2c1 [Example 163, 2-Imidazo[4,5-b]pyridin-3-yl-1-((R)-4-{4-[5-(2-methoxy-ethoxy)-1H-benzoimidazol-2-yl]-2-trifluoromethyl-thiazol-5-yl}-2-methyl-piperazin-1-yl)-ethanone] | 8.30 | 7.33
13 | C[C@@H]1CN(c2sc(C(F)(F)F)nc2-c2nc3cc(C4(O)CC4)ccc3[nH]2)CCN1C(=O)Cn1cnc2cccnc21 [Example 168, 1-((R)-4-{4-[5-(1-Hydroxy-cyclopropyl)-1H-benzoimidazol-2-yl]-2-trifluoromethyl-thiazol-5-yl}-2-methyl-piperazin-1-yl)-2-imidazo[4,5-b]pyridin-3-yl-ethanone] | 8.52 | 6.36

Now those with a higher pIC50 (human CXCR3A), led by results:

Row | pIC50 (human CXCR3A) | pIC50 (CXCR3) | Structure (SMILES)
14 | 9.00 | 5.81 | C[C@@H]1CN(c2scnc2-c2nc3ccc(CO)cc3[nH]2)CCN1C(=O)Cn1cnc2cccnc21 [Example 159, 1-{(R)-4-[4-(6-Hydroxymethyl-1H-benzoimidazol-2-yl)-thiazol-5-yl]-2-methyl-piperazin-1-yl}-2-imidazo[4,5-b]pyridin-3-yl-ethanone]
15 | 9.00 | 6.74 | C[C@@H]1CN(c2scnc2-c2nc3ccc(C4CC4)cc3[nH]2)CCN1C(=O)Cn1cnc2cccnc21 [Example 162, 1-{(R)-4-[4-(6-Cyclopropyl-1H-benzoimidazol-2-yl)-thiazol-5-yl]-2-methyl-piperazin-1-yl}-2-imidazo[4,5-b]pyridin-3-yl-ethanone]
16 | 9.00 | 7.03 | C[C@@H]1CN(c2sc(C(F)(F)F)nc2-c2nc3cc(OCCO)ccc3[nH]2)CCN1C(=O)Cn1cnc2cccnc21 [Example 164, 1-((R)-4-{4-[5-(2-Hydroxy-ethoxy)-1H-benzoimidazol-2-yl]-2-trifluoromethyl-thiazol-5-yl}-2-methyl-piperazin-1-yl)-2-imidazo[4,5-b]pyridin-3-yl-ethanone]
17 | 9.00 | 7.01 | CC(=O)c1ccc2[nH]c(-c3nc(C(F)(F)F)sc3N3CCN(C(=O)Cn4cnc5cccnc54)[C@H](C)C3)nc2c1 [Example 165, 1-{(R)-4-[4-(5-Acetyl-1H-benzoimidazol-2-yl)-2-trifluoromethyl-thiazol-5-yl]-2-methyl-piperazin-1-yl}-2-imidazo[4,5-b]pyridin-3-yl-ethanone]
18 | 9.00 | 6.95 | CC(O)c1ccc2[nH]c(-c3nc(C(F)(F)F)sc3N3CCN(C(=O)Cn4cnc5cccnc54)[C@H](C)C3)nc2c1 (stereo partly drawn) [Example 166, 1-((R)-4-{4-[5-(1-Hydroxy-ethyl)-1H-benzoimidazol-2-yl]-2-trifluoromethyl-thiazol-5-yl}-2-methyl-piperazin-1-yl)-2-imidazo[4,5-b]pyridin-3-yl-ethanone]
19 | 9.00 | 6.85 | COC(=O)c1ccc2[nH]c(-c3nc(C(F)(F)F)sc3N3CCN(C(=O)Cn4cnc5cccnc54)[C@H](C)C3)nc2c1 [Example 167, 2-{5-[(R)-4-(2-Imidazo[4,5-b]pyridin-3-yl-acetyl)-3-methyl-piperazin-1-yl]-2-trifluoromethyl-thiazol-4-yl}-1H-benzoimidazole-5-carboxylic acid methyl ester]
